We go through 21 molecules from US6696476B2, “Pyranoindazoles and their use for the treatment of glaucoma” (Alcon, Inc., priority 2001, dated 2004).

In data set [1] the target is T1, 5-HT2A Receptor (Rattus norvegicus, UniProt P14842). The data set is described as follows: 5-HT2 Functional Assay: [Ca2+]i Mobilization (FLIPR, A7r5 cells). The class given is cell-based. Further details: endogenous in cells; host or cells: A7r5 rat vascular smooth muscle cells. The following applies: for pEC50: [Ca2+]i mobilization, A7r5 rat vascular smooth muscle cells; for Emax: read-out: Efficacy (Emax, %). On the procedure:
The receptor-mediated mobilization on intracellular calcium ([Ca^2+]i) was studied using the Fluorescence Imaging Plate Reader (FLIPR) instrument. Rat vascular smooth muscle cells, A7r5, were grown in a normal media of DMEM/10% FBS and 10 μg/mL gentamycin. Confluent cell monolayers were trypsinized, pelleted, and re-suspended in normal media. Cells were seeded in a 50 μL volume at a density of 20,000 cells/well in a black wall, 96-well tissue culture plate and grown for 2 days.
On the day of the experiment, one vial of FLIPR Calcium Assay Kit dye was re-suspended in 50 mL of a FLIPR buffer consisting of Hank's Balanced Salt Solution (HBSS), 20 mM HEPES, and 2.5 mM probenecid, pH 7.4. Cells were loaded with the calcium-sensitive dye by addition of an equal volume (50 μL) to each well of the 96-well plate and incubated with dye for 1 h at 23° C.
Compounds were diluted 1:50 in 20% DMSO/20% Ethanol. For “hit” screening, compounds were further diluted 1:10 in FLIPR buffer and tested at a final concentration of 10 μM.
The compound plate and cell plate were placed in the FLIPR instrument. At the beginning of an experimental run, a signal test was performed to check the basal fluorescence signal from the dye-loaded cells and the uniformity of the signal across the plate. The basal fluorescence was adjusted between 8000-12000 counts by modifying the exposure time, the camera F-stop, or the laser power. Instrument settings for a typical assay were the following: laser power 0.3-0.6 W, camera F-stop F/2, and exposure time 0.4 sec. An aliquot (25 μL) of the test compound was added to the existing 100 μL dye-loaded cells at a dispensing speed of 50 μL/sec. Fluorescence data were collected in real-time at 1.0 sec intervals for the first 60 secs and at 6.0 sec intervals for an additional 120 secs.

The target of data set [2] is T1, 5-HT2A Receptor. The data set can be described thus: 5-HT2 Receptor Binding Assay ([125I]DOI competition). Further details: species or system rat or human. The following applies: 5-HT2A receptor binding; [125I]DOI displacement, cerebral cortex homogenates. The procedure:
Aliquots of post mortem rat or human cerebral cortex homogenates (400 μL) dispersed in 50 mM Tris HCl buffer (pH 7.4) are incubated with [^125I]DOI (80 pM final) in the absence or presence of methiothepin (10 μM final) to define total and non-specific binding, respectively, in a total volume of 0.5 mL. The assay mixture is incubated for 1 hour at 23° C. in polypropylene tubes and the assays terminated by rapid vacuum filtration over Whatman GF/B glass fiber filters previously soaked in 0.3% polyethyleneimine using ice-cold buffer. Test compounds (at different concentrations) are substituted for methiothepin. Filter-bound radioactivity is determined by scintillation spectrometry on a beta counter. The data are analyzed using a non-linear, iterative curve-fitting computer program [Trends Pharmacol. Sci., 16, 413 (1995)] to determine the compound affinity parameter. The concentration of the compound needed to inhibit the [^125I]DOI binding by 50% of the maximum is termed the IC50 or Ki value.

A further data set relates to intraocular pressure. The data set is described as follows: IOP Response in Conscious Cynomolgus Monkeys. The class given is in vivo.
Data set [3] deals with IOP. The following applies: rabbits; cited from earlier work.
Data set [4] deals with IOP. Particulars: monkey; attributed to α1A receptor activity; cited from earlier work.
[5] abbreviates: percentage of a maximum 5-HT-induced response, A7r5 cells.
Where [6] appears, read: 3 hours after dose, dose 300 μg.
Setting [7] is: 6 hours after dose, dose 300 μg.

As usually defined, the pEC50 is −log10 of the EC50, conventionally taken in molar units. Broadly, the Emax is the greatest response seen or fitted, relative to the assay's reference. By pIC50 is commonly meant the negative decadic logarithm of the IC50, by convention in mol/L. A high value points to a small IC50. The term melting point denotes the temperature, or range, at which the solid turns liquid.

pEC50, pIC50: −log10 of the molar value. Where a name gives a salt, the structure may show the parent alone. Read-outs that look alike come from different tables or passages of the source.

T1 sequence (P14842 whole entry): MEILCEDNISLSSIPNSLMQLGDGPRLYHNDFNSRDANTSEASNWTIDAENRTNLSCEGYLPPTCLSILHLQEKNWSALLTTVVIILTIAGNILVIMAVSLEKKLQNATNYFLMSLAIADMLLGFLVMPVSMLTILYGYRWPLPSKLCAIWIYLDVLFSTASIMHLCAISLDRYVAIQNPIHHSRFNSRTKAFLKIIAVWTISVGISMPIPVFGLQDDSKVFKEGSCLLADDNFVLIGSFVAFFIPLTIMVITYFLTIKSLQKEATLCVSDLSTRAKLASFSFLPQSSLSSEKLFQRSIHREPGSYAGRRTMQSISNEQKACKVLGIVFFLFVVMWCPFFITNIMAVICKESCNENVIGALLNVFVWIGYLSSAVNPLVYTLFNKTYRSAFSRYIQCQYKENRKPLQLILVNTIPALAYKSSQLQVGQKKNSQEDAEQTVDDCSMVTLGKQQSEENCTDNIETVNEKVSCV

On 5-HT2A Receptor [1], `C[C@H](N)Cn1ncc2ccc3c(c21)C[C@H](O)CO3` [Example 5, (S)-1-((S)-2-Aminopropyl)-1,7,8,9-tetrahydro-pyrano[2,3-g]indazol-8-ol] had a pEC50 of 6.65. At 5-HT2A Receptor [1] (setting [5]), the Emax came out at 70%. On 5-HT2A Receptor [2], this molecule had a pIC50 of 8.46. The “Percent IOP Reduction ± SEM” value in the data set on intraocular pressure (1 hour after dose, dose 300 μg) amounted to 7.9 ± 4.06%; in the data set on intraocular pressure (setting [6]), 17.3 ± 3.87%; with intraocular pressure (setting [7]) it was 25.1 ± 4.76%.
`COC1c2c(ccc3cnn(C[C@H](C)N)c23)OCC1O` (stereo partly drawn) gave a melting point of 105 to 108 °C.
Still for that read-out and setting: next, `CC(N)Cn1ncc2ccc3c(c21)CC(O)CO3` (stereo not drawn): 124 to 125 °C.
`C[C@H](N)Cn1ncc2ccc3c(c21)C[C@@H](O)CO3` [Example 4, (R)-1-((S)-2-Aminopropyl)-1,7,8,9-tetrahydro-pyrano[2,3-g]indazol-8-ol] displayed a melting point of 126 to 128 °C. Also, the pEC50 at 5-HT2A Receptor [1] is 7.19. For the same molecule, at 5-HT2A Receptor [1] (setting [5]), the Emax was 92%. At 5-HT2A Receptor [2], this molecule showed a pIC50 of 8.65. For the same molecule, the “Percent IOP Reduction ± SEM” value in the data set with intraocular pressure (1 hour after dose, dose 300 μg) is given as 7.68 ± 2.91%. Moreover, the “Percent IOP Reduction ± SEM” value in the data set with intraocular pressure (setting [6]) is recorded as 25.8 ± 3.53%. Besides, in the data set on intraocular pressure (setting [7]), the “Percent IOP Reduction ± SEM” value was found to be 30.2 ± 4.48%.
For the molecule `C[C@H](N)Cn1ncc2ccc3c(c21)CCCO3.Cl.Cl` [Example 8, (S)-2-(8,9-Dihydro-7H-pyrano[2,3-g]indazol-1-yl)-1-methyl-ethylamine Dihydrochloride], the melting point is 95 to 98 °C. The molecule further showed a pEC50 on 5-HT2A Receptor [1] of 7.05. Further, the Emax on 5-HT2A Receptor [1] (setting [5]) was 85%. Also, the pIC50 at 5-HT2A Receptor [2] is 9.16.
In the same order, the values of `C[C@H](N)Cn1ncc2ccc3c(c21)C[C@@H](N)CO3.Cl.Cl.Cl` [Example 6, (R)-1-((S)-2-Amino-propyl)-1,7,8,9-tetrahydro-pyrano[2,3-g]indazol-8-ylamine Trihydrochloride] are greater than 300 °C, 6.76, 87% and 8.18.
The molecule `C[C@@H](N)Cn1ncc2ccc3c(c21)CC(O)CO3.Cl` (stereo partly drawn) gave a melting point of 82 to 86 °C.
The molecule `C[C@H](N)Cc1n[nH]c2ccc3c(c12)CCCO3` (as salt: hydrochloride) [Example 17, (S)-1-Methyl-2-(3,7,8,9-tetrahydro-pyrano[3,2-e]indazol-1-yl)-ethylamine] came in with a melting point of 235 to 240 °C.
For `C[C@H](N)Cn1ncc2ccc3c(c21)C=CCO3` [Example 9, (S)-1-Methyl-2-(7H-pyrano[2,3-g]indazol-1-yl)-ethylamine], the pEC50 on 5-HT2A Receptor [1] was 7.38. For the same molecule, the Emax at 5-HT2A Receptor [1] (setting [5]) worked out at 91%. At 5-HT2A Receptor [2], this molecule gave a pIC50 of 9.56.
Regarding `CCCN(CCC)C1CCc2cccc(O)c2C1` (stereo not drawn) [Example 8-OH-DPAT, 8-hydroxydipropylaminotetralin], the “effect on IOP” value in the data set on IOP [3] is on record as “reduces IOP”.
As to `C[C@H](N)Cn1ncc2ccc3c(c21)[C@H](O)[C@H](O)CO3` (relative stereo) [Example 7, (8R*,9S*)-1-((S)-2-Amino-propyl)-1,7,8,9-tetrahydro-pyrano[2,3-g]indazole-8,9-diol], the melting point lay in the range of 115 to 117 °C. At 5-HT2A Receptor [1], this molecule showed a pEC50 of 6.71. Besides, the Emax at 5-HT2A Receptor [1] (setting [5]) was determined as 85%. In addition, the pIC50 on 5-HT2A Receptor [2] is 8.43.
Take `C[C@H](N)Cn1ncc2ccc3c(c21)CC(O)CO3` (stereo partly drawn) [Example 3, 1-((S)-2-Aminopropyl)-1,7,8,9-tetrahydro-pyrano[2,3-g]indazol-8-ol]: the melting point lay within 46 to 51 °C. In addition, the pEC50 at 5-HT2A Receptor [1] was 6.84. The Emax at 5-HT2A Receptor [1] (setting [5]) worked out at 85%. For the same molecule, the pIC50 at 5-HT2A Receptor [2] was 8.66.
On to `COc1cc(C[C@@H](C)N)c(OC)cc1I` [(R)-DOI, reference compound], for which the “Percent IOP Reduction ± SEM” value stood at 11.0 ± 4.98% with intraocular pressure (1 hour after dose, dose 100 μg); 25.3 ± 2.97% in the data set on intraocular pressure (3 hours after dose, dose 100 μg); 34.4 ± 4.98% in the data set with intraocular pressure (6 hours after dose, dose 100 μg).
For the molecule `NCCc1c[nH]c2ccc(O)cc12` [Example 5-HT, 5-Hyroxytryptamine, reference compound], at 5-HT2A Receptor [1] (setting [5]), the “Efficacy (Emax, %)” value turned out to be 101%.
With `C[C@H](N)Cn1ncc2ccc3c(c21)C[C@@H](OCC(=O)OC(C)(C)C)CO3` [Example 16, [(R)-1-((S)-2-Amino-propyl)-1,7,8,9-tetrahydro-pyrano[2,3-g]indazol-8-yloxy]acetic Acid Tert-butyl Ester Dihydrochloride], the pEC50 at 5-HT2A Receptor [1] is 6.37. Further, the Emax at 5-HT2A Receptor [1] (setting [5]) is 73%. At 5-HT2A Receptor [2], this molecule showed a negative logarithm of the IC50 (pIC50) of 8.71.
For `CC(=O)NCCO[C@H]1COc2ccc3cnn(C[C@H](C)N)c3c2C1` [Example 14, N-[2-[(R)-1-((S)-2-Aminopropyl)-1,7,8,9-tetrahydropyrano[2,3-g]indazol-8-yloxy]-ethyl]acetamide], the melting point lay within 165 to 166 °C. The molecule also gave a pEC50 on 5-HT2A Receptor [1] of 6.69. For the same molecule, the maximal response (Emax) on 5-HT2A Receptor [1] (setting [5]) was 86%. This molecule gave a pIC50 on 5-HT2A Receptor [2] of 8.27.
In turn, `C[C@H](N)Cn1ncc2ccc3c(c21)C(N)C(O)CO3` (stereo partly drawn) came in with a melting point of 84 to 88 °C.
For `C[C@H](N)Cn1ncc2ccc3c(c21)C[C@@H](OCC(N)=O)CO3` [Example 15, 2-[(R)-1-((S)-2-Aminopropyl)-1,7,8,9-tetrahydro-pyrano[2,3-g]indazol-8-yloxy]-acetamide], on 5-HT2A Receptor [1], the pEC50 is 6.75. Besides, the Emax on 5-HT2A Receptor [1] (setting [5]) turned out to be 95%. Moreover, at 5-HT2A Receptor [2], the pIC50 is 8.54.
In the same order, the values of `C[C@H](N)Cc1n[nH]c2ccc3c(c12)CCCO3` [Example 17, (S)-1-Methyl-2-(3,7,8,9-tetrahydro-pyrano[3,2-e]indazol-1-yl)-ethylamine] are 6.81, 88% and 9.10.
In the case of `C[C@H](N)Cn1ncc2ccc3c(c21)C[C@@H](OCCO)CO3.Cl.Cl` [Example 13, 2-[(R)-1-((S)-2-Aminopropyl)-1,7,8,9-tetrahydro-pyrano[2,3-g]indazol-8-yloxy]-ethanol Dihydrochloride], the melting point was greater than 100 °C. This molecule showed a pEC50 on 5-HT2A Receptor [1] of 6.92. Besides, the Emax on 5-HT2A Receptor [1] (setting [5]) was 87%. Besides, at 5-HT2A Receptor [2], the pIC50 is 8.47. In the data set on intraocular pressure (1 hour after dose, dose 300 μg), the “Percent IOP Reduction ± SEM” value is listed as 8.3 ± 2.64%. Besides, the “Percent IOP Reduction ± SEM” value in the data set on intraocular pressure (setting [6]) amounted to 21.4 ± 4.18%. In the data set on intraocular pressure (setting [7]), the “Percent IOP Reduction ± SEM” value was found to be 28.4 ± 3.36%.
For `COc1ccccc1N1CCN(CCCNc2c(C)c(=O)n(C)c(=O)n2C)CC1` [5-methylurapidil], in the data set with IOP [4], the “effect on IOP” value was “lowers IOP”.
